According to patent publication US6040309A, “Benzothiophene derivatives useful in therapy” (Pfizer, Inc., priority 1997, dated 2000):
Bridges are numbered along the chain shown (N, C = ends). Where no end group is shown, it is not given here.

Legend:
neointimal formation = details: cited from earlier work
ETA receptor = biological target: T1, ETA receptor (Rattus norvegicus, UniProt P26684); assay: In Vitro Vascular Smooth Muscle Activity, Rat Aorta (ET-1 contraction; Test B); assay type: cell-based; details: read-out: pA2 (converted)
T1 construct: Rat aortae are cleaned of connective tissue and fat and cut into helical strips; from tissue; host or cells: rat aorta, helical strips, endothelium removed
T1 sequence (P26684 21-426): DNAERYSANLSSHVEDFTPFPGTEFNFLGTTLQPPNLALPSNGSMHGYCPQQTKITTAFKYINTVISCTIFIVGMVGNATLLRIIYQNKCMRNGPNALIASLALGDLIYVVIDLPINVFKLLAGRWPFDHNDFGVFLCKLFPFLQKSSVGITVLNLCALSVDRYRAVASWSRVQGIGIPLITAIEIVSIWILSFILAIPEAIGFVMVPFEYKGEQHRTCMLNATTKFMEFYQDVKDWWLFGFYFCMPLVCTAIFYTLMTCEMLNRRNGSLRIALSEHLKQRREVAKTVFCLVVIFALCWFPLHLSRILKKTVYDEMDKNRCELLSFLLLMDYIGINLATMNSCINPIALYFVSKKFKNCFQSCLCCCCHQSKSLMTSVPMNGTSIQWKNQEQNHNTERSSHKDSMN
Source text: B. In Vitro Vascular Smooth Muscle Activity
Rat aortae are cleaned of connective tissue and fat and cut into helical strips approx 4 mm in width. The endothelium is removed by dragging the luminal surface of the tissue gently across filter paper moistened with Krebs solution of composition (mM) NaCl 130, KCl 5.6, NaHCO3 25, Glucose 11.1, NaH2 PO4 0.6, CaCl2 2.16, MgCl2 0.5, gassed with 95% O2 /5% CO2. The strips are mounted in isolated organ baths in Krebs solution under a resting tension of 1 gram. Organ bath solutions are maintained at 37° C. and continuously aerated with 95% O2 /5% CO2. […] After equilibration in the organ bath for 1 hour, tissues are contracted by the addition of KCl to a final concentration of 60 mM. The KCl is removed by replacing the Krebs solution, with two further washes with Krebs solution. To determine the potency of an ETA receptor antagonist, two tissues are cumulatively dosed with ET-1 (0.1 nM-1 μM); other tissues are dosed with ET-1 (0.1 nM-1 μM) in duplicate, beginning 30 minutes after the inclusion in the organ bath medium of the test compound. Sufficient tissues are used per experiment to generate dose-response curves to ET-1 in the absence and the presence of at least 3 concentrations of antagonist. Data are expressed as the mean±s.e.m. Dissociation constants (kb) of competitive antagonists are calculated by the method of Arunlakshana and Schild.

rabbit ETA receptor = details: cited from earlier work
human ETA receptor = details: cited from earlier work

| Kb (ETA receptor) | Molecule | IC50 (rabbit ETA receptor) | further results |
| --- | --- | --- | --- |
| – | CCCOc1ccc2c(c1)[C@@H](c1ccc(OC)cc1OCC(=O)O)[C@H](C(=O)O)[C@H]2c1ccc2c(c1)OCO2 [SB-209670] | – | reduction in neointimal formation (neointimal formation; relative to control animals): 50% |
| 0.0148 µM | O=C(O)c1sc2cc(OCc3cccnc3)ccc2c1Sc1ccccc1O [Example 56] | – | – |
| 0.229 µM | O=C(O)c1sc2cc(Cn3ccnc3)ccc2c1Sc1ccccc1O [Example 71] | – | – |
| – | COc1cccc(Sc2c(C(=O)O)sc3ccccc23)c1 [3-[(3-methoxyphenyl)sulfanyl]benzo[b]thiophene-2-carboxylic acid] | 5.9 µM | – |
| – | CC(C)Oc1c(C(=O)O)sc2ccc(OCc3ccccc3)cc12 [5-benzyloxy-3-isopropoxybenzo[b]thiophene-2-carboxylic acid] | 6 µM | IC50 (human ETA receptor): 8.8 µM |
| – | ET-1: isoform of endothelin, 21-amino acid peptide, potent vasoconstrictor (CSCSSLMDKECVYFCHLDIIW; disulfide 1-15, 3-11; ends not checked; UniProt P05305 53-73, looked up) | – | effect on neointimal formation (neointimal formation; in rats after balloon angioplasty): potentiate neointimal formation |
